Experimental findings from patent US6790936B1, “CAI resistance proteins and uses thereof” (The United States of America as represented by the …, priority 1994, dated 2004) are described below.

Common to all, as to type: cell-based, human
Assay [1] concerns A2058 CAI resistant cells. The assay is described as follows: Culture of CAI resistant cells (A2058). Particulars: chronic culture under continuous CAI, 10, 20, 30 and 40 μM. How it is done: (§1) Low passage (passage 13) parental human melanoma cells (A2058), and human ovarian cancer cells (OVCAR3) were cultured in Dulbecco's Modified Eagles medium (DMEM) supplemented with 10% fetal calf serum (FCS) and pen/strep (penicillin and streptomycin). Over a period of 24 to 30 months, the cells were incubated with increasing concentrations of CAI starting with 0.1 μM and reaching 45 μM. The CAI, obtained from the Developmental Therapeutics Program of the National Cancer Institute, was dissolved in DMSO and aliquots were stored at −70° C. until used. The diluted CAI was added directly into the media as required. Continuous selective pressure with CAI was maintained throughout culture and was maintained throughout all experiments.
No overt differences in morphology of the A2058 CAI resistant cells was observed.

The next assay has as its system OVCAR3 cells. The assay is described as follows: Culture of CAI resistant cells (OVCAR3). Conditions: cells chronically resistant to 10 μM and 20 μM CAI. Here is the method:
as §1, with “experiments. OVCAR3 cells chronically resistant to 10 μM and 20 μM CAI were also established.” for “experiments.”

The subject of a further assay is CAIR-1. Kind of assay: Northern analysis of CAIR-1 expression in A2058-20R versus parental A2058 cells. Particulars: A2058-20R (20 μM CAI) vs parental A2058 total RNA, compared to GAPDH housekeeping gene control. From the text:
The subtracted probe was first hybridized against a Northern blot of total RNA from parental A2058 cells and CAI resistant A2058-20R cells. Increased expression of a number of transcripts was seen (FIG. 1, upper left panel). Re-hybridization of the blot with radiolabeled GAPDH as a housekeeping gene confirmed the […] (FIG. 1, lower left panel).
A cDNA library was constructed from A2058-20R cells by Stratagene (La Jolla, Calif., USA). The library was probed using standard approaches (Id.) and the positive probes were plaque purified. Forty-one clones were selected and 35 were determined to be nonoverlapping by restriction digest. Fifteen were randomly selected for determination of their expression by Northern analysis. Inserts were purified by low melting point agarose gel electrophoresis and then radiolabeled with standard random primer conditions (Amersham, Little Chalfont, Bucks, United Kingdom) and hybridized with a Northern of parental (wildtype) total RNA and RNA from A2058-20R cells. […] The CAIR-1 cDNA (clone 21DBB insert) was sequenced using standard dideoxy-sequencing (SequenaseII kit) with 35S-dATP label. The cDNA sequence is shown in Seq. Id No. 1.

Take `NC(=O)c1nnn(Cc2cc(Cl)c(C(=O)c3ccc(Cl)cc3)c(Cl)c2)c1N` [CAI, Carboxyamido-triazole]: the “growth rate of A2058 CAI resistant cells” value in assay [1] was “not attenuated until the 40 μM treatment in which it decreased somewhat”. Further, the “growth rates of OVCAR3 cells in the CAI treatments” value with OVCAR3 cells is recorded as “slightly lower growth rates”. Also, in the assay on CAIR-1, the “increased expression of CAIR-1 cDNA (clone 21DBB) in response to culture with CAI” value is 3.8 fold.
